Patent US9422308B2, “Derivatives of docosahexaenoylethanolamide and uses thereof” (The United States of America, as represented by the …, priority 2012, dated 2016)
Values joined by “and” are separate entries in the source; they are usually repeats but may differ in a detail not shown here. Equal entries are not always repeated. Where two headings read alike, the source gives them in different places.

Assay: pharmacokinetics, plasma and brain, after IP dose in mice
Type: in vivo
Details: male C57BL/6 mice; for concentration at 0.083 hr / concentration at 0.25 hr / concentration at 0.5 hr / concentration at 1 hr / concentration at 2 hr / concentration at 3 hr / concentration at 4 hr / concentration at 8 hr: male, C57BL/6, mouse, ip, 50 mg/kg; for half-life: read-out: Terminal t1/2 (converted)
Description: Each time point is […], with 11 time points=33 animals. Each time point was done in triplicate (N=3). The brain and plasma from each animal was analyzed.
Formulation preparation: • IP: 5% DMAC+5% Solutol HS15+90% Saline • 50 mg/kg, 10 mL/kg
Analytical method: • Instrument: LCMSMS-6 (Agilent 6410, triple quadrupole) • Matrix: Mouse plasma and brain homogenate • Analyte(s): NCGC00248435-03 • Internal standard(s): Diclofenac • MS conditions: Positive, ESI • MRM detection • NCGC00248435-03: [M+H]+m/z 400.3→72.2 • Diclofenac: [M+H]+m/z 296.0→214.0
(§1) For plasma samples: An aliquot of 30 μL plasma sample was added with 100 μL ACN (including Diclofenac, 50 ng/mL) for protein precipitation. The mixture was vortexed for 2 min and centrifuged at 12000 rpm for 5 min. The 8 μL supernatant was injected into LC-MS/MS for analysis.
as §1, with “For brain” for “For plasma”, “samples: Brain sample was homogenized for 2 min with 3 volumes (v/w) of homogenizing solution.” for “samples:”, “μL brain homogenate” for “μL plasma”
The IP dosing solution was prepared in 5% DMAC+5% SolutolHS15+90% Saline. Brain was homogenized with 3 volumes (v/w) of PBS (pH7.4) and then analyzed with LC-MS/MS. The Brain concentration was corrected with a dilution factor of 4 as following: Brain concentration=Brain homogenate conc.×4, assuming 1 g wet brain equals to 1 mL. BQL=Below quantifiable limit of 1 ng/mL for NCGC00248435-03 in male C57BL/6 plasma and brain homogenate samples. NA=Not available.

clinical observation post dose (IP 50 mg/kg, all animals): Slight mobility reduction
duration of mobility reduction post dose (IP 50 mg/kg, all animals): 1 h
brain concentration Dose Normalized Mean (brain, 0.083 hr, IP 50 mg/kg): 0.024
brain Concentration Individual (brain, 0.083 hr, IP 50 mg/kg, 3 animals, listed as NCGC00248435-03, 50 mg/kg): 310 ng/g and 551 ng/g
brain concentration Dose Normalized Mean (brain, 0.25 hr, IP 50 mg/kg): 0.054
brain Concentration Individual (brain, 0.25 hr, IP 50 mg/kg, 3 animals, listed as NCGC00248435-03, 50 mg/kg): 1081 ng/g and 1330 ng/g
brain concentration Dose Normalized Mean (brain, 0.5 hr, IP 50 mg/kg): 0.236
brain Concentration Individual (brain, 0.5 hr, IP 50 mg/kg, 3 animals, listed as NCGC00248435-03, 50 mg/kg): 5013 ng/g and 3992 ng/g
brain concentration Dose Normalized Mean (brain, 1 hr, IP 50 mg/kg): 0.152
brain Concentration Individual (brain, 1 hr, IP 50 mg/kg, 3 animals, listed as NCGC00248435-03, 50 mg/kg): 2086 ng/g and 3367 ng/g
brain concentration Dose Normalized Mean (brain, 2 hr, IP 50 mg/kg): 0.089
brain Concentration Individual (brain, 2 hr, IP 50 mg/kg, 3 animals, listed as NCGC00248435-03, 50 mg/kg): 2463 ng/g and 1494 ng/g
brain concentration Dose Normalized Mean (brain, 3 hr, IP 50 mg/kg): 0.075
brain Concentration Individual (brain, 3 hr, IP 50 mg/kg, 3 animals, listed as NCGC00248435-03, 50 mg/kg): 1410 ng/g and 1152 ng/g
brain concentration Dose Normalized Mean (brain, 4 hr, IP 50 mg/kg): 0.017
brain Concentration Individual (brain, 4 hr, IP 50 mg/kg, 3 animals, listed as NCGC00248435-03, 50 mg/kg): 234 ng/g and 585 ng/g and 179 ng/g
brain concentration Dose Normalized Mean (brain, 8 hr, IP 50 mg/kg): 0.001
brain Concentration Individual (brain, 8 hr, IP 50 mg/kg, 3 animals, listed as NCGC00248435-03, 50 mg/kg): 13.5 ng/g
AUCbrain(AUClast) (brain, IP 50 mg/kg): 8458 ng·h/mL
concentration at 0.083 hr (brain, brain, 0.083 hr, 3 animals, read-out: brain Concentration Individual): 554 ng/g
concentration at 0.083 hr (brain, brain, 0.083 hr, read-out: brain concentration Mean): 472 ng/g and 1.18 µM
concentration at 0.25 hr (brain, brain, 0.25 hr, 3 animals, read-out: brain Concentration Individual): 853 ng/g
concentration at 0.25 hr (brain, brain, 0.25 hr, read-out: brain concentration Mean): 1090 ng/g and 2.72 µM
concentration at 0.5 hr (brain, brain, 0.5 hr, 3 animals, read-out: brain Concentration Individual): 5110 ng/g
concentration at 0.5 hr (brain, brain, 0.5 hr, read-out: brain concentration Mean): 4710 ng/g and 11.8 µM
concentration at 1 hr (brain, brain, 1 hr, 3 animals, read-out: brain Concentration Individual): 3650 ng/g
concentration at 1 hr (brain, brain, 1 hr, read-out: brain concentration Mean): 3040 ng/g and 7.59 µM
concentration at 2 hr (brain, brain, 2 hr, 3 animals, read-out: brain Concentration Individual): 1380 ng/g
concentration at 2 hr (brain, brain, 2 hr, read-out: brain concentration Mean): 1780 ng/g and 4.45 µM
concentration at 3 hr (brain, brain, 3 hr, 3 animals, read-out: brain Concentration Individual): 1930 ng/g
concentration at 3 hr (brain, brain, 3 hr, read-out: brain concentration Mean): 1500 ng/g and 3.75 µM
concentration at 4 hr (brain, brain, 4 hr, read-out: brain concentration Mean): 333 ng/g and 833 nM
concentration at 8 hr (brain, brain, 8 hr, 3 animals, read-out: brain Concentration Individual): 8.94 ng/g
concentration at 8 hr (brain, brain, 8 hr, read-out: brain concentration Mean): 12 ng/g and 30 nM
concentration at 0.083 hr (plasma, plasma, 0.083 hr, 3 animals, read-out: plasma Concentration Individual): 2090 ng/mL
concentration at 0.083 hr (plasma, plasma, 0.083 hr, read-out: plasma concentration Mean): 2620 ng/mL and 6.56 µM
concentration at 0.25 hr (plasma, plasma, 0.25 hr, 3 animals, read-out: plasma Concentration Individual): 6550 ng/mL
concentration at 0.25 hr (plasma, plasma, 0.25 hr, read-out: plasma concentration Mean): 5100 ng/mL and 12.8 µM
concentration at 0.5 hr (plasma, plasma, 0.5 hr, 3 animals, read-out: plasma Concentration Individual): 5960 ng/mL
concentration at 0.5 hr (plasma, plasma, 0.5 hr, read-out: plasma concentration Mean): 5790 ng/mL and 14.5 µM
concentration at 1 hr (plasma, plasma, 1 hr, 3 animals, read-out: plasma Concentration Individual): 4050 ng/mL
concentration at 1 hr (plasma, plasma, 1 hr, read-out: plasma concentration Mean): 3960 ng/mL and 9.91 µM
concentration at 2 hr (plasma, plasma, 2 hr, 3 animals, read-out: plasma Concentration Individual): 1130 ng/mL
concentration at 2 hr (plasma, plasma, 2 hr, read-out: plasma concentration Mean): 1020 ng/mL and 2.56 µM
concentration at 3 hr (plasma, plasma, 3 hr, 3 animals, read-out: plasma Concentration Individual): 321 ng/mL
concentration at 3 hr (plasma, plasma, 3 hr, read-out: plasma concentration Mean): 275 ng/mL and 688 nM
concentration at 4 hr (plasma, plasma, 4 hr, read-out: plasma concentration Mean): 100 ng/mL and 250 nM
concentration at 8 hr (plasma, plasma, 8 hr, 3 animals, read-out: plasma Concentration Individual): 1.83 ng/mL
concentration at 8 hr (plasma, plasma, 8 hr, read-out: plasma concentration Mean): 2.11 ng/mL and 5 nM
Kp (mouse, brain and plasma, IP 50 mg/kg, read-out: AUCbrain/AUCplasma): 1.05
AUC(0-inf) (mouse, brain, IP 50 mg/kg): 8470 ng·h/mL
Cmax (mouse, brain, IP 50 mg/kg): 4710 ng/mL
Tmax (mouse, brain, IP 50 mg/kg): 30 min
half-life (mouse, brain, IP 50 mg/kg): 47.6 min
AUC(0-inf) (mouse, plasma, IP 50 mg/kg): 8080 ng·h/mL
AUC(0-t) (mouse, plasma, IP 50 mg/kg): 8080 ng·h/mL
Cmax (mouse, plasma, IP 50 mg/kg): 5790 ng/mL
Tmax (mouse, plasma, IP 50 mg/kg): 30 min
half-life (mouse, plasma, IP 50 mg/kg): 42.8 min
plasma concentration Dose Normalized Mean (plasma, 0.083 hr, IP 50 mg/kg): 0.131
plasma Concentration Individual (plasma, 0.083 hr, IP 50 mg/kg, 3 animals, listed as NCGC00248435-03, 50 mg/kg): 3063 ng/mL and 2707 ng/mL
plasma concentration Dose Normalized Mean (plasma, 0.25 hr, IP 50 mg/kg): 0.255
plasma Concentration Individual (plasma, 0.25 hr, IP 50 mg/kg, 3 animals, listed as NCGC00248435-03, 50 mg/kg): 4892 ng/mL and 3849 ng/mL
plasma concentration Dose Normalized Mean (plasma, 0.5 hr, IP 50 mg/kg): 0.290
plasma Concentration Individual (plasma, 0.5 hr, IP 50 mg/kg, 3 animals, listed as NCGC00248435-03, 50 mg/kg): 6378 ng/mL and 5036 ng/mL
plasma concentration Dose Normalized Mean (plasma, 1 hr, IP 50 mg/kg): 0.198
plasma Concentration Individual (plasma, 1 hr, IP 50 mg/kg, 3 animals, listed as NCGC00248435-03, 50 mg/kg): 4574 ng/mL and 3252 ng/mL
plasma concentration Dose Normalized Mean (plasma, 2 hr, IP 50 mg/kg): 0.051
plasma Concentration Individual (plasma, 2 hr, IP 50 mg/kg, 3 animals, listed as NCGC00248435-03, 50 mg/kg): 1064 ng/mL and 870 ng/mL
plasma concentration Dose Normalized Mean (plasma, 3 hr, IP 50 mg/kg): 0.014
plasma Concentration Individual (plasma, 3 hr, IP 50 mg/kg, 3 animals, listed as NCGC00248435-03, 50 mg/kg): 255 ng/mL and 249 ng/mL
plasma concentration Dose Normalized Mean (plasma, 4 hr, IP 50 mg/kg): 0.005
plasma Concentration Individual (plasma, 4 hr, IP 50 mg/kg, 3 animals, listed as NCGC00248435-03, 50 mg/kg): 78.4 ng/mL and 148 ng/mL and 72.9 ng/mL
plasma concentration Dose Normalized Mean (plasma, 8 hr, IP 50 mg/kg): 0.000
plasma Concentration Individual (plasma, 8 hr, IP 50 mg/kg, 3 animals, listed as NCGC00248435-03, 50 mg/kg): 2.94 ng/mL and 1.55 ng/mL
Compound: CC/C=C\C/C=C\C/C=C\C/C=C\C/C=C\C/C=C\CCC(=O)NCC(C)(C)O [Compound 1, (4Z,7Z,10Z,13Z,16Z,19Z)—N-(2-hydroxy-2-methylpropyl)docosa-4,7,10,13,16,19-hexaenamide]
brain concentration Dose Normalized Mean (brain, 12 hr, IP 50 mg/kg): BQL (Below quantifiable limit of 1 ng/mL for NCGC00248435-03 in male C57BL/6 plasma and brain homogenate samples)
brain concentration Mean (brain, 12 hr, IP 50 mg/kg): BQL (Below quantifiable limit of 1 ng/mL for NCGC00248435-03 in male C57BL/6 plasma and brain homogenate samples)
brain Concentration Individual (brain, 12 hr, IP 50 mg/kg, 3 animals): BQL (Below quantifiable limit of 1 ng/mL for NCGC00248435-03 in male C57BL/6 plasma and brain homogenate samples)
brain concentration Dose Normalized Mean (brain, 24 hr, IP 50 mg/kg): BQL (Below quantifiable limit of 1 ng/mL for NCGC00248435-03 in male C57BL/6 plasma and brain homogenate samples)
brain concentration Mean (brain, 24 hr, IP 50 mg/kg): BQL (Below quantifiable limit of 1 ng/mL for NCGC00248435-03 in male C57BL/6 plasma and brain homogenate samples)
brain Concentration Individual (brain, 24 hr, IP 50 mg/kg, 3 animals): BQL (Below quantifiable limit of 1 ng/mL for NCGC00248435-03 in male C57BL/6 plasma and brain homogenate samples)
plasma concentration Dose Normalized Mean (plasma, 12 hr, IP 50 mg/kg): BQL (Below quantifiable limit of 1 ng/mL for NCGC00248435-03 in male C57BL/6 plasma and brain homogenate samples)
plasma concentration Mean (plasma, 12 hr, IP 50 mg/kg): BQL (Below quantifiable limit of 1 ng/mL for NCGC00248435-03 in male C57BL/6 plasma and brain homogenate samples)
plasma Concentration Individual (plasma, 12 hr, IP 50 mg/kg, 3 animals): BQL (Below quantifiable limit of 1 ng/mL for NCGC00248435-03 in male C57BL/6 plasma and brain homogenate samples)
plasma concentration Dose Normalized Mean (plasma, 24 hr, IP 50 mg/kg): BQL (Below quantifiable limit of 1 ng/mL for NCGC00248435-03 in male C57BL/6 plasma and brain homogenate samples)
plasma concentration Mean (plasma, 24 hr, IP 50 mg/kg): BQL (Below quantifiable limit of 1 ng/mL for NCGC00248435-03 in male C57BL/6 plasma and brain homogenate samples)
plasma Concentration Individual (plasma, 24 hr, IP 50 mg/kg, 3 animals): BQL (Below quantifiable limit of 1 ng/mL for NCGC00248435-03 in male C57BL/6 plasma and brain homogenate samples)
